{"source": "patent US10561638B2", "about": "“Methods for treating dependence” (Biotie Therapies, Inc., priority 2007, dated 2020)", "key": {"[1]": {"system": "left ventricle norepinephrine and dopamine levels", "test": "Left ventricle catecholamines after two i.v. doses", "format": "in vivo, Sprague-Dawley rats", "settings": "15 mg/kg iv x2, left ventricle", "protocol": "The purpose of this study was to determine the effects of intravenous administration of nepicastat (hereafter referred to as nepicastat) on the levels of dopamine and norepinephrine in the left ventricle in Sprague-Dawley rats. Animals received two intravenous (iv) administrations, 12 hours apart, of either vehicle (75% propylene glycol+25% DMSO; 1.0 ml/kg) or 15 mg/kg of nepicastat. Tissue norepinephrine and dopamine levels were measured six hours after the last compound administration.\nSixteen to 17 week old male Sprague-Dawley rats, weighing 300-400 grams, were allowed food and water ad libitum. Animals were weighed and randomly assigned, the afternoon before the study, to one of the following treatment groups (n=10 per group): vehicle (1.0 ml/kg) or nepicastat at 15 mg/kg.\nEach rat was dosed iv in the tail vein the afternoon before harvest. The dosing was repeated 12 hours later the following morning. Six hours after the final administration rats were anesthetized with halothane, decapitated, and the left ventricle was rapidly harvested and weighed. The ventricle was placed in 1.0 ml iced 0.4 M perchloric acid. Tissues were immediately frozen in liquid nitrogen and stored at −70° C. Tissue dopamine and norepinephrine concentrations were assayed by high performance liquid chromatography using electrochemical detection.\nA one-way analysis of variance (ANOVA) with a main effect for treatment was performed for norepinephrine. A Kruskal-Wallis was performed for dopamine and their ratio primarily due to heterogeneous variances among treatment groups. Subsequent pairwise comparisons between nepicastat treated rats and vehicle were performed using Fisher's LSD test. A Bonferroni adjustment was performed on all p-values to ensure an overall experiment-wise type 1 error rate of 5%."}, "[2]": {"system": "tissue norepinephrine and dopamine levels", "test": "Tissue catecholamines in beagle dogs, 10, 30, 60 mg/kg/day for 4.5 days", "format": "in vivo", "protocol": "This study was performed to determine the dopamine and norepinephrine concentrations in kidney medulla and kidney cortex from dogs dosed with nepicastat. Adult male beagle dogs were randomly assigned to four groups of 8 dogs per group and dosed by oral administration with nepicastat. Nepicastat was delivered in doses of 5, 15 and 30 mg/kg placed in single capsules. Vehicle was an empty capsule. Each dog received 2 doses daily, morning and afternoon (8-10 hours apart) for four days. On the fifth day, each dog received a single dose in the morning and the dogs were euthanized six hours after the last dose. Samples of kidney medulla and kidney cortex were rapidly harvested, weighed, placed in cold 0.4 M perchloric acid, frozen in liquid nitrogen and stored at −70° C.\nTo quantitate concentrations of norepinephrine (NE) and dopamine (D), each tissue was homogenized by brief sonication in 0.4 M perchloric acid. After sonication, the homogenates were centrifuged at 13,000 rpm in a microfuge for 30 minutes at 4° C. An aliquot of each supernatant was removed and spiked with 3,4-dihydroxybenzylamine (DHBA) as internal standard. The extract from each sample was subjected to HPLC separation using electrochemical detection. The method has a quantitation limit of 2.0 ng/mL and a linear range of 2.0 ng/mL to 400 ng/mL for each analyte.\nThirty-two male beagle dogs, weighing 10-12 kg, were randomly assigned to one of the following 4 treatment groups (n=8 per group): nepicastat at 0 mg/kg/day (placebo), 10 mg/kg/day (5 mg/kg b.i.d.), 30 mg/kg (15 mg/kg b.i.d.), or 60 mg/kg/day (30 mg/kg b.i.d.). Dog numbers 1-16 were assigned as dose group A and dog numbers 17-32 as dose group B. The terminal surgery for tissue harvest was performed over 2 days with 16 animals studied per day. Two or 3 days before the first compound administration each dog was weighed and skin regions overlying both cephalic, saphenous and jugular veins were shaved. Dosing consisted of oral administration of one capsule with the second given 8-10 hr later. Dogs were dosed as scheduled on days 1-3. On day 4, prior to the AM dose, 3 ml of blood were obtained from a jugular vein for determination of baseline plasma compound levels. The dog was then administered the AM dose, and at 1, 2, 4 and 8 hr following the dose additional 3 ml blood samples were collected for determination of plasma compound levels. Blood samples were put into tubes containing heparin, centrifuged at 4° C. and stored at −20° C. until analysis. The PM dose was then administered as scheduled. The AM dose was administered as scheduled on the days of surgery. Approximately 6 hr after the AM dose, a final 3 ml blood sample was taken from the jugular vein for determination of plasma compound levels. The dog was then anesthetized with pentobarbital Na (˜40 mg/kg), given i.v. in a cephalic or saphenous vein, and delivered to the necropsy room where an additional dose of pentobarbital Na was given (˜80 mg/kg, iv). The left ventricle, renal artery, kidney, renal medulla, renal cortex and cerebral cortex were then rapidly harvested, weighed, put into 2 ml iced 0.4M perchloric acid, frozen in liquid nitrogen and stored at −70° C. until analysis for catecholamines by HPLC using electrochemical detection. All tissue samples were divided into 2 portions, the second of which were immediately frozen in liquid nitrogen and stored at −70° C. for determination of tissue compound levels. A third transmural sample taken from the left ventricle was immediately frozen in liquid nitrogen and stored at −70° C. for use in receptor binding studies.\nVentricles were homogenized in 50 mM Tris-HCl, 5 mM Na2EDTA buffer (pH 7.4 at 4° C.) using a Polytron P-10 tissue disrupter (setting 10, 2×15 second bursts). Homogenates were centrifuged at 500×g for 10 minutes and the supernatants stored on ice. The pellets were washed by resuspension and centrifugation at 500×g and the supernatants combined. […]"}, "[3]": {"settings": "renal medulla, 60 mg/kg/day, marginal (0.05<p<0.10)"}}, "data": [{"smiles": "Cl.NCc1c[nH]c(=S)n1[C@H]1CCc2c(F)cc(F)cc2C1", "note": "[nepicastat, (S)-5-Aminomethyl-1-(5,7-difluoro-1,2,3,4-tetrahydronaphth-2-yl)-2,3-dihydro-2-thioxo-1H-imidazole hydrochloride]", "values": [{"measurement": "decrease in norepinephrine levels", "setting": "[1]", "result": 51, "unit": "%"}, {"measurement": "increase in dopamine levels", "setting": "[1]", "result": 472, "unit": "%"}, {"measurement": "increase in dopamine/norepinephrine ratio", "setting": "[1]", "result": 1117, "unit": "%"}, {"measurement": "increase in dopamine", "setting": "[2]; cerebral cortex, 10 mg/kg/day", "result": 632, "unit": "%"}, {"measurement": "increase in dopamine/norepinephrine ratio", "setting": "[2]; cerebral cortex, 10 mg/kg/day", "result": 531, "unit": "%"}, {"measurement": "decrease in norepinephrine", "setting": "[2]; cerebral cortex, 30 mg/kg/day", "result": 63, "unit": "%"}, {"measurement": "increase in dopamine/norepinephrine ratio", "setting": "[2]; cerebral cortex, 30 mg/kg/day", "result": 86, "unit": "%"}, {"measurement": "increase in dopamine", "setting": "[2]; cerebral cortex, 30 mg/kg/day, marginal (0.05<p<0.10)", "result": 174, "unit": "%"}, {"measurement": "increase in dopamine", "setting": "[2]; cerebral cortex, 60 mg/kg/day", "result": 411, "unit": "%"}, {"measurement": "increase in dopamine/norepinephrine ratio", "setting": "[2]; cerebral cortex, 60 mg/kg/day", "result": 612, "unit": "%"}, {"measurement": "norepinephrine levels vs placebo", "setting": "[2]; cerebral cortex, 10 and 60 mg/kg/day", "result": "not significantly (p>0.01) affected"}, {"measurement": "dose at which the plateau in DBH inhibition response begins", "setting": "[2]; heart, renal artery and kidney", "result": 10, "unit": "mg/kg/day"}, {"measurement": "decrease in norepinephrine", "setting": "[2]; left ventricle, 10 mg/kg/day", "result": 85, "unit": "%"}, {"measurement": "increase in dopamine/norepinephrine ratio", "setting": "[2]; left ventricle, 10 mg/kg/day", "result": 852, "unit": "%"}, {"measurement": "decrease in norepinephrine", "setting": "[2]; left ventricle, 30 mg/kg/day", "result": 58, "unit": "%"}, {"measurement": "increase in dopamine/norepinephrine ratio", "setting": "[2]; left ventricle, 30 mg/kg/day", "result": 279, "unit": "%"}, {"measurement": "decrease in norepinephrine", "setting": "[2]; left ventricle, 60 mg/kg/day", "result": 79, "unit": "%"}, {"measurement": "increase in dopamine/norepinephrine ratio", "setting": "[2]; left ventricle, 60 mg/kg/day", "result": 607, "unit": "%"}, {"measurement": "dopamine levels vs placebo", "setting": "[2]; left ventricle, 10, 30 and 60 mg/kg/day", "result": "No significant changes"}, {"measurement": "decrease in norepinephrine", "setting": "[2]; renal artery, 10 mg/kg/day", "result": 86, "unit": "%"}, {"measurement": "increase in dopamine", "setting": "[2]; renal artery, 10 mg/kg/day", "result": 180, "unit": "%"}, {"measurement": "increase in dopamine/norepinephrine ratio", "setting": "[2]; renal artery, 10 mg/kg/day", "result": 1711, "unit": "%"}, {"measurement": "decrease in norepinephrine", "setting": "[2]; renal artery, 30 mg/kg/day", "result": 81, "unit": "%"}, {"measurement": "increase in dopamine", "setting": "[2]; renal artery, 30 mg/kg/day", "result": 273, "unit": "%"}, {"measurement": "increase in dopamine/norepinephrine ratio", "setting": "[2]; renal artery, 30 mg/kg/day", "result": 1767, "unit": "%"}, {"measurement": "decrease in norepinephrine", "setting": "[2]; renal artery, 60 mg/kg/day", "result": 85, "unit": "%"}, {"measurement": "increase in dopamine", "setting": "[2]; renal artery, 60 mg/kg/day", "result": 268, "unit": "%"}, {"measurement": "increase in dopamine/norepinephrine ratio", "setting": "[2]; renal artery, 60 mg/kg/day", "result": 1944, "unit": "%"}, {"measurement": "decrease in norepinephrine", "setting": "[2]; renal cortex, 10 mg/kg/day", "result": 86, "unit": "%"}, {"measurement": "increase in dopamine", "setting": "[2]; renal cortex, 10 mg/kg/day", "result": 156, "unit": "%"}, {"measurement": "increase in dopamine/norepinephrine ratio", "setting": "[2]; renal cortex, 10 mg/kg/day", "result": 1653, "unit": "%"}, {"measurement": "decrease in norepinephrine", "setting": "[2]; renal cortex, 30 mg/kg/day", "result": 66, "unit": "%"}, {"measurement": "increase in dopamine", "setting": "[2]; renal cortex, 30 mg/kg/day", "result": 502, "unit": "%"}, {"measurement": "increase in dopamine/norepinephrine ratio", "setting": "[2]; renal cortex, 30 mg/kg/day", "result": 1440, "unit": "%"}, {"measurement": "decrease in norepinephrine", "setting": "[2]; renal cortex, 60 mg/kg/day", "result": 85, "unit": "%"}, {"measurement": "increase in dopamine", "setting": "[2]; renal cortex, 60 mg/kg/day", "result": 208, "unit": "%"}, {"measurement": "increase in dopamine/norepinephrine ratio", "setting": "[2]; renal cortex, 60 mg/kg/day", "result": 1693, "unit": "%"}, {"measurement": "decrease in norepinephrine", "setting": "[2]; renal medulla, 10 mg/kg/day", "result": 72, "unit": "%"}, {"measurement": "increase in dopamine/norepinephrine ratio", "setting": "[2]; renal medulla, 10 mg/kg/day", "result": 555, "unit": "%"}, {"measurement": "increase in dopamine", "setting": "[2]; renal medulla, 10 mg/kg/day, marginal (0.05<p<0.10)", "result": 150, "unit": "%"}, {"measurement": "increase in dopamine", "setting": "[2]; renal medulla, 30 mg/kg/day", "result": 522, "unit": "%"}, {"measurement": "increase in dopamine/norepinephrine ratio", "setting": "[2]; renal medulla, 30 mg/kg/day", "result": 636, "unit": "%"}, {"measurement": "increase in dopamine/norepinephrine ratio", "setting": "[2]; renal medulla, 60 mg/kg/day", "result": 677, "unit": "%"}, {"measurement": "decrease in norepinephrine", "setting": "[2]; [3]", "result": 69, "unit": "%"}, {"measurement": "increase in dopamine", "setting": "[2]; [3]", "result": 156, "unit": "%"}]}]}
